We go through 1 compound from patent US20220031642A1, “Niclosamide Formulations and Methods of Use” (priority 2020, published 2022).

The subject of one data set is SARS-CoV-2. Description: microbe, parasite or virus in culture. It is filed as cell-based. Conditions: Severe acute respiratory syndrome coronavirus 2, Vero C1008; Vero E6 cells, reporter SARS-CoV-2 MOI of 0.1, luciferase activity 24 h post-infection; read-out: antiviral EC50.
The conditions of data set [1]: human, in vivo, po; cited from earlier work.

As to `O=C(Nc1ccc([N+](=O)[O-])cc1Cl)c1cc(Cl)ccc1O` [niclosamide, Niclosamide], the EC50 (usually the midpoint of the concentration-response curve) in the data set with SARS-CoV-2 came to 0.15 µM. Further, in data set [1], the “tmax (plasma levels peaked)” value is 4 h.
